Where two headings read alike, the source gives them in different places.
Columns and labels:
[1] = cited from earlier work
[2] = system: plasma proteins; conditions: GHB concentrations 3 mcg/mL to 300 mcg/mL; cited from earlier work
[3] = cited from earlier work; remark: listed apart in the source
[4] = system: patients; conditions: cited from earlier work; for incidence of depression: controlled trial titrated from 4.5 g, placebo 1.7%
[5] = n=20, another studied population; cited from earlier work
[6] = system: mouse; conditions: 2-year study; cited from earlier work
[7] = system: rat; conditions: 2-year study; cited from earlier work
[8] = in vivo
Procedure: The study included a sequential, three period design with a single-dose administration of 6 g FT218 on Day 1 (Period 1), once daily 1250 mg divalproex sodium ER administration from Day 2-11 (Period 2), and FT218 and divalproex sodium ER co-administration on Day 12 (Period 3). All administrations were performed in the evening, 2 hours after the completion of dinner.
(§1) To compare the effect of FT218 on DVP, the concentration versus time curves for a 1250 mg dose of DVP administered alone (Day 11) and co-administered with FT218 (Day 12) were plotted together.

[9] = in vivo; remark: listed apart in the source
Procedure: The study included a sequential, three period design with a single-dose administration of 6 g FT218 on Day 1 (Period 1), once daily 1250 mg divalproex sodium ER administration from Day 2-11 (Period 2), and FT218 and divalproex sodium ER co-administration on Day 12 (Period 3). All administrations were performed in the morning, 2 hours after the completion of a morning meal.
as §1

[10] = 9 g per night, 50 patients with obstructive sleep apnea
[11] = elderly (65 years or older), another population
[12] = of 781 patients with narcolepsy
[13] = younger adults, another population
[14] = 6 g per day as two 3 g doses, ibuprofen 800 mg/dose four times per day

For `O=C(O)CCCO` [GHB, gamma-hydroxybutyrate], the “excretion in human milk” value ([1]; after oral administration of sodium oxybate) is given as “excreted in human milk”, the “apparent volume of distribution” value ([1]; in vivo) is given as 0.19 to 0.384 L/kg and the elimination half-life ([1]; in vivo) is given as 30 to 60 min. For the same compound, the fecal excretion ([1]; in vivo) was “negligible”, the placental transfer ([1]; intravenous administration to mothers) was “rapid” and the “unchanged drug in human urine” value ([1]; within 6 to 8 hours after dosing) was “less than 5%”. The “bound to plasma proteins” value [2] was “less than 1%” and the “change in pharmacokinetics of GHB on alteration of gastric pH with omeprazole” value ([3]; in vivo) was “no significant change”.

In the case of `O=C([O-])CCCO.[Na+]` [immediate-release sodium oxybate, sodium 4-hydroxybutyrate], the incidence of depression ([4]; 4.5 g per night) is given as 1.5%, the incidence of depression ([4]; 6 g per night) is given as 3.2% and the “patients with clinically significant oxygen desaturation (≤55%)” value ([4]; 9 g per night, 50 patients with obstructive sleep apnea (three patients)) is given as 6%. The “number of central apneas” value [4, 10] was “significant increase”, the “severity of sleep-disordered breathing” value [4, 10] was “did not increase the severity of sleep-disordered breathing” and the patients experiencing confusion ([4]; 9 g per night, controlled fixed-dose trial) was 17%. The incidence of depression ([4]; 9 g per night) was 3.6%, the “clinically significant worsening of respiratory function” value ([4]; 40 patients with baseline apnea/hypopnea index 16 to 67 events per hour, 4.5 g to 9 g per night) was “None of the 40 patients” and the “profound CNS depression” value ([4]; 128 patients with narcolepsy) was “two subjects had profound CNS depression”. For the same compound, the “CNS depression at recommended doses” value ([4]; adult patients, clinical trials) was “obtundation and clinically significant respiratory depression occurred”, the “sleepwalking with potential injury or significant injury” value ([4]; clinical trial in patients with narcolepsy) was “Five instances” and the events of depression ([4]; controlled trial, fixed doses 3 g, 6 g or 9 g per night, at the 3 g per night dose) was “a single event of depression”. For the same compound, the “dose-related changes in oxygen saturation” value ([4]; doses up to 9 g per night, 21 patients with narcolepsy) was “no dose-related changes in oxygen saturation”, the “discontinuations of treatment due to adverse reactions” value [4, 11] was 21% and the frequency of headaches [4, 11] was 39%. For the same compound, the “patients discontinuing because of depression” value ([4]; four of 781 patients) was less than 1%, the “patients discontinuing due to sleepwalking” value ([4]; human, in vivo) was less than 1% and the “patients who discontinued because of confusion” value ([4]; human, in vivo) was “Less than 1%”. For the same compound, the “patients reporting adverse reactions of depression” value [4, 12] was 7%, the “patients who experienced confusion” value [4, 12] was 3% and the patients reporting sleepwalking ([4]; of 781 patients with narcolepsy, controlled and long-term open-label studies) was 6%. For the same compound, the “patients in whom anxiety occurred” value ([4]; of 874 patients, another population) was 5.8%, the “suicides and attempted suicides” value ([4]; patients with narcolepsy (n=781)) was “two suicides and two attempted suicides” and the “significant worsening of apnea/hypopnea index” value ([4]; patients with preexisting moderate-to-severe sleep apnea) was “One of four patients”. The events of confusion ([4]; trial titrated from 4.5 g per night, at the 9 g per night dose) was “a single event of confusion”, the “discontinuations of treatment due to adverse reactions” value [4, 13] was 19% and the frequency of headaches [4, 13] was 19%. For the same compound, the “systemic exposure to GHB on co-administration with diclofenac” value ([3]; 6 g per day as two 3 g doses four hours apart, diclofenac 50 mg/dose twice per day) was “no significant changes”, the “effect of co-administration on pharmacokinetics of diclofenac” value ([3]; 6 g per day as two 3 g doses, diclofenac 50 mg/dose twice per day) was “did not appear to affect” and the “effect of co-administration on pharmacokinetics of ibuprofen” value [3, 14] was “did not affect”. The “systemic exposure to GHB (plasma Cmax and AUC) on co-administration with ibuprofen” value [3, 14] was “comparable systemic exposure”, the “pharmacokinetic interactions with protriptyline hydrochloride, zolpidem tartrate, and modafinil” value ([3]; healthy adults) was “no pharmacokinetic interactions” and the “pharmacokinetic or pharmacodynamic interactions with duloxetine HCl” value ([3]; healthy adults) was “no pharmacokinetic or clinically significant pharmacodynamic interactions”. For the same compound, the “pharmacokinetic interactions with the alcohol dehydrogenase inhibitor fomepizole” value ([3]; in vivo) was “no pharmacokinetic interactions” and the “pharmacokinetic characteristics of GHB in younger (48 to 64 years) vs older (65 to 75 years) adults” value [5] was “consistent”.

In the case of `O=C1CCCO1` [gamma-butyrolactone], the carcinogenic activity [6] is listed as “no clear evidence of carcinogenic activity” and the carcinogenic activity [7] is listed as “no clear evidence of carcinogenic activity”.

In the case of `CCCC(CCC)C(=O)O` [divalproex sodium ER, divalproex sodium], the “decrease of valproic acid Cmax with FT218” value ([8]; human) is reported as “approximately 5%”, the “valproic acid AUC0-24 T/R ratio [90% CI], Day 12 (with FT218) vs Day 11 (without)” value ([8]; human) is reported as 97.28 [94.59-100.04] and the “valproic acid Cmax T/R ratio [90% CI], Day 12 (with FT218) vs Day 11 (without)” value ([8]; human) is reported as 94.82 [91.03-98.76]. The “90% CIs of ratio of Cmax and AUC0-24 of valproic acid vs bioequivalence range (80.00%-125.00%)” value [8] was “contained within the standard bioequivalence range”, the “tmax for valproic acid, with vs without FT218” value [8] was “comparable” and the “90% CIs of ratio of Cmax and AUC0-24 of valproic acid vs bioequivalence range (80.00%-125.00%)” value [9] was “contained within the standard bioequivalence range”.

Source: patent US20250387361A1, “METHODS OF ADMINISTERING GAMMA-HYDROXYBUTYRATE COMPOSITIONS WITH DIVALPROEX SODIUM” (Flamel Ireland Limited, priority 2020, published 2025)
